pIC50: −log10 of the molar value. Converted amounts (≈) assume the structure as drawn. Read-outs that look alike come from different tables or passages of the source.
Tests used:
[1] = test system: mTORC1 pathway in tuberous sclerosis 2 (TSC2) positive (TSC+/+) MEF cells; assay: Western blot, mTORC1 pathway in TSC+/+ MEF cells; assay type: cell-based, mouse; conditions: 24 hours
Description: (§1) The methods employed were substantially similar to those described above. Compounds were evaluated in PC3 cells, Jurkat cells, wild-type mouse embryotic fibroblast (MEF) cells, tuberous sclerosis 2 (TSC2) negative (TSC −/−) MEF cells, and tuberous sclerosis 2 (TSC2) positive (TSC +/+) MEF cells. Cells were incubated with compounds of the present invention for various time periods (e.g., 5 minutes, 15 minutes, 30 minutes, 90 minutes, 24 hours, or 48 hours), and evaluated according to known methodologies, such as those herein described.

[2] = Solubility in 100 mM phosphate buffer (pH 7.4); assay type: physicochemical; conditions: pH 7.4, aqueous buffer
Excerpt: The compound numbers correspond to the compound numbers in Table 1.

mTORC1 over mTORC2 = assay: mTORC1 selectivity over mTORC2 at 24 hrs (Western blot based pS6K1 and pAKT assay); assay type: cell-based; conditions: 24 hrs
[3] = test system: mTORC1 pathway in tuberous sclerosis (TSC2) negative (TSC−/−) MEF cells; assay: Western blot, mTORC1 pathway in TSC−/− MEF cells; assay type: cell-based, mouse; conditions: 24 hours
Description: as §1

[4] = test system: pS6K1 (p-p70 S6 Kinase (Thr389)) in MCF-7 cells; assay: AlphaLISA Ultra pS6K1 Assay; assay type: cell-based; conditions: Homo sapiens, 1.5 h; MCF7 cells, 90 min
Method in brief: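 MCF-7 cells were seeded for 20–24 h, refed with fresh medium for 2 h, then treated with compound for 90 min at 0.5% final DMSO. Lysates were frozen at −80 °C, thawed and assayed by AlphaLISA with acceptor then donor beads, 2 h each.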

[5] = test system: mTORC1 pathway (pS6K1 T389) in PC3 cells; assay: Western blot, mTORC1 pathway (pS6K1) in PC3 cells; assay type: cell-based; conditions: PC3 cells, 24 hours
Description: (§2) Western Blot Based pS6K1 and pAKT Assay at 24 and 48 Hour Timepoints
(§3) 1. Seed six well plate with 500,000 PC3 cells per well and incubate for 20˜24 hour.
(§4) 2. Add compounds into the cell plate. Incubate for 24 to 48 hours.
(§5) 4. Plate is placed on ice and the media is removed via aspiration. The wells are washed with 1 mL of 1× PBS and then fully aspirated.
(§6) 5. 110 μL of 1% Triton Lysis Buffer is added and each well is scraped vigorously.
(§7) 6. Cell homogenates are transferred to 1.5 mL eppendorf tubes on ice and spun down at 4° C. for 10 minutes at 10,000 rpm.
(§8) 9. The membranes were washed 3× with TBS-T with a 5 minute incubation between each wash then incubated with secondary antibody (LiCor IRDye 800 Donkey Anti Rabbit) for at least 30 minutes.
(§9) 10. The membranes were washed 3× with TBS-T with a 5 minute incubation between each wash.
(§10) 11. The gels were then incubated for 5 minutes with PBS at room temperature then imaged using a Li-Cor.
as §1

[6] = test system: 4E-BP1 phosphorylation in PC3 cells; assay: Western blot, 4E-BP1 phosphorylation in PC3 cells; assay type: cell-based; conditions: 24 hours
[7] = test system: pAKT (p-Akt 1/2/3 (Ser473)) in MCF-7 cells; assay: AlphaLISA Ultra pAKT Assay; assay type: cell-based; conditions: Homo sapiens, 1.5 h; MCF7 cells, 90 min
Description: AlphaLISA Ultra pAKT Assay
1. MCF-7 cells in Corning 3701 plate and incubate for 20˜24 hour.
16,000˜20,000 cells will be seeded in 36 μL medium per well.
2. Change the culture medium with fresh medium and incubate for another 90 minutes.
3. […]
4. Aspirate […] by HAMILTON, 10 μL rest per well.
5. Add 10 μL 2× lysis buffer using HAMILTON; total volume in wells is 20 μL. Allow cells to shake for 30 min. Cover plate by plastic foil and store plate at −80° C. up to analysis.
6. Thaw cell lysate at RT and transfer 10 ul lysate to assay plate (Optiplate-384).
7. Add 5 μL acceptor beads into assay plate and incubation for 2 hours
8. Add 5 μL donor beads and incubation for 2 hours
9. Count the plate by EnSpire Multimode Plate Reader

[8] = test system: mTORC2 pathway (Akt phosphorylation) in PC3 cells; assay: Western blot, mTORC2 pathway (pAkt) in PC3 cells; assay type: cell-based; conditions: 24 hours
Description: as §2, §3, §4, §5, §6, §7, §8, §9, §10, §1

[9] = test system: mTORC2 (Akt phosphorylation) in TSC+/+ MEF cells; assay: Western blot, mTORC2 pathway (pAkt) in TSC+/+ MEF cells; assay type: cell-based, mouse; conditions: 24 hours
Description: as §1

[10] = Pharmacokinetic properties in C57Bl/6 mice; assay type: in vivo; conditions: mouse, plasma; for half-life: read-out: Terminal T1/2 (converted)
Description: Pharmacokinetic Properties
The pharmacokinetic properties of compounds of the present invention were evaluated in C57Bl/6 mice and compared with rapamycin. Animals were fasted overnight prior to administration of I-29 or rapamycin (1 mg/kg IV, 10 mg/kg PO, or 2 mg/kg IP). Animals were bled at time intervals for up to 48 hours following administration of compounds. Whole blood from each mouse was indivisually collected in polypropylene tubes and immediately centrifuged. Alloquates of the separated plasma were promptly prepared for HPCL analysis.

IFN-γ production = IFN-γ production in allogenic mixed lymphocyte reaction; assay type: cell-based; conditions: read-out: IFN-γ Inhibition IC50s
Description: Assessment of Effect on IFN-γ Production in Allogenic Mixed Lymphocyte Reaction
The effect of rapamycin, everolimus, I-29, and I-117 on IFN-y production was evaluated in an allogenic mixed lymphocyte reaction (E.g., Eleftheriadis, T. et al., Int. J. Mol. Med., 37(5): 1412-20 (2016) https://doi.org/10.3892/ijmm.2016.2547).

[11] = test system: mTORC2 (Akt phosphorylation) in wild-type MEF cells; assay: Western blot, mTORC2 pathway (pAkt) in wild-type MEF cells; assay type: cell-based, mouse; conditions: 24 hours
Description: as §1

[12] = test system: mTORC1 pathway in wild-type MEF cells; assay: Western blot, mTORC1 pathway in wild-type MEF cells; assay type: cell-based, mouse; conditions: 24 hours
Description: as §1

Row | Structure (SMILES) | solubility [2] [µM] | pIC50 [4] | pIC50 [7] | inhibition of the mTORC1 pathway [1] | mTORC1 selective @ 24 hrs (mTORC1 over mTORC2) | inhibition of the mTORC1 pathway [5] | inhibition of mTORC2 (Akt phosphorylation) [8] | inhibition of mTORC2 (Akt phosphorylation) [9] | further results
1 | COCCOCCOC1C[C@@H]2CC[C@@H](C)[C@@](O)(O2)C(=O)C(=O)N2CCCC[C@H]2C(=O)O[C@H]([C@H](C)C[C@@H]2CC[C@@H](OCCO)[C@H](OC)C2)CC(=O)[C@H](C)/C=C(\C)[C@@H](O)[C@@H](OC)C(=O)[C@H](C)C[C@H](C)/C=C/C=C/C=C/1C (some centres unmarked) [I-2] | 30 to 60 (≈ 31.4 to 62.8 µg/mL) | 9.00 to 10.00 | ≤ 7.00 | moderate concentration dependent inhibition | YES | strong inhibition | do not inhibit | do not inhibit | inhibition of the mTORC1 pathway [3]: strong inhibition; inhibition of 4E-BP1 phosphorylation [6]: no inhibition
2 | CO[C@@H]1C[C@H](C[C@@H](C)[C@@H]2CC(=O)[C@H](C)/C=C(\C)[C@@H](O)[C@@H](OC)C(=O)[C@H](C)C[C@H](C)/C=C/C=C/C=C(\C)[C@@H](OCCOCCOCCO)C[C@@H]3CC[C@@H](C)[C@@](O)(O3)C(=O)C(=O)N3CCCC[C@H]3C(=O)O2)CC[C@H]1O [I-29] |  |  |  |  |  |  |  |  | AUC(0-inf) ([10]; 1 mg/kg IV): 18400 ng·h/mL; AUC(0-t) ([10]; 1 mg/kg IV): 17600 ng·h/mL; MRT inf ([10]; 1 mg/kg IV): 15.9 h; clearance ([10]; 1 mg/kg IV): 0.9 mL/min/kg; half-life ([10]; 1 mg/kg IV): 14.7 h; Vd ([10]; 1 mg/kg IV, read-out: Vss): 0.863 L/kg; AUC(0-inf) ([10]; 2 mg/kg IP): 16900 ng·h/mL; AUC(0-t) ([10]; 2 mg/kg IP): 16600 ng·h/mL; Cmax ([10]; 2 mg/kg IP): 2590 ng/mL; Tmax ([10]; 2 mg/kg IP): 0.25 h; half-life ([10]; 2 mg/kg IP): 12.6 h; AUC(0-inf) ([10]; 10 mg/kg PO): 31700 ng·h/mL; AUC(0-t) ([10]; 10 mg/kg PO): 31200 ng·h/mL; Cmax ([10]; 10 mg/kg PO): 3290 ng/mL; Tmax ([10]; 10 mg/kg PO): 0.25 h; half-life ([10]; 10 mg/kg PO): 11 h; pIC50 (IFN-γ production): < 5.52
3 | CO[C@@H]1C[C@H](C[C@@H](C)[C@@H]2CC(=O)[C@H](C)/C=C(\C)[C@@H](O)[C@@H](OC)C(=O)[C@H](C)C[C@H](C)/C=C/C=C/C=C(\C)[C@@H](OCCOCCOCCO)C[C@@H]3CC[C@@H](C)[C@@](O)(O3)C(=O)C(=O)N3CCCC[C@H]3C(=O)O2)CC[C@H]1OCCO [I-110, (21E,23E,25E,26E,36R,37S,38R,39R,41S,43S,45S,46S,47R,48R,57R)-47, 57-dihydroxy-45-[2-[2-(2-hydroxyethoxy)ethoxy]ethoxy]-46-[(1R)-2-[(1S,3R, 4R)-4-(2-hydroxyethoxy)-3-methoxy-cyclohexyl]-1-methyl-ethyl]-48-methoxy-36,37,38,39,49,50-hexamethyl-68, 69-dioxa-58-azatricyclohexatriaconta-21,23,25(49),26(50)-tetraene-51, 52,53,54,55-pentone] |  | 9.00 to 10.00 |  | moderate concentration dependent inhibition | YES |  |  | do not inhibit | 
4 | CO[C@@H]1C[C@H](C[C@@H](C)[C@@H]2CC(=O)[C@H](C)/C=C(\C)[C@@H](O)[C@@H](OC)C(=O)[C@H](C)C[C@H](C)/C=C/C=C/C=C(\C)[C@@H](OCCOCCOCCOCCO)C[C@@H]3CC[C@@H](C)[C@@](O)(O3)C(=O)C(=O)N3CCCC[C@H]3C(=O)O2)CC[C@H]1OCCO [I-115, (21E,23E,25E,26E,38R,39S,40R,41R,43S,45S,47S,48S,49R,50R,59R)-49, 59-dihydroxy-47-[2-[2-[2-(2-hydroxyethoxy)ethoxy]ethoxy]ethoxy]-48-[(1R)-2-[(1S,3R, 4R)-4-(2-hydroxyethoxy)-3-methoxy-cyclohexyl]-1-methyl-ethyl]-50-methoxy-38,39,40,41,51,52-hexamethyl-70, 71-dioxa-60-azatricyclohexatriaconta-21,23,25(51),26(52)-tetraene-53, 54,55,56,57-pentone] |  | 9.00 to 10.00 |  | moderate concentration dependent inhibition | YES | strong inhibition | does not inhibit | does not inhibit | inhibition of mTORC2 (Akt phosphorylation) [11]: does not inhibit; inhibition of the mTORC1 pathway [12]: moderate concentration dependent inhibition

The next lines start with results.

Row | solubility [2] [µM] | pIC50 [4] | pIC50 [7] | Structure (SMILES) | inhibition of the mTORC1 pathway [1] | mTORC1 selective @ 24 hrs (mTORC1 over mTORC2) | inhibition of the mTORC1 pathway [5] | inhibition of mTORC2 (Akt phosphorylation) [8] | inhibition of mTORC2 (Akt phosphorylation) [9] | further results
5 | 30 to 60 (≈ 29.6 to 59.3 µg/mL) | 9.00 to 10.00 | ≤ 7.00 | CO[C@@H]1C[C@H](C[C@@H](C)[C@@H]2CC(=O)[C@H](C)/C=C(\C)[C@@H](O)[C@@H](OC)C(=O)[C@H](C)C[C@H](C)/C=C/C=C/C=C(\C)[C@@H](OCCOCCO)C[C@@H]3CC[C@@H](C)[C@@](O)(O3)C(=O)C(=O)N3CCCC[C@H]3C(=O)O2)CC[C@H]1O [I-20] | moderate concentration dependent inhibition | YES |  |  | do not inhibit | 
6 |  | 8.00 to 9.00 |  | CO[C@@H]1C[C@H](C[C@@H](C)[C@@H]2CC(=O)[C@H](C)/C=C(\C)[C@@H](O)[C@@H](OC)C(=O)[C@H](C)C[C@H](C)/C=C/C=C/C=C(\C)C(OCCOCCOCCOCCOCCOCCOCCOCCOCCO)C[C@@H]3CC[C@@H](C)[C@@](O)(O3)C(=O)C(=O)N3CCCC[C@H]3C(=O)O2)CC[C@H]1O (stereo partly drawn) [I-97, (21E,23E,25E,26E,46R,47S,48R,49R,51S,53S,56S,57R,58R,67R)-57, 67-dihydroxy-55-[2-[2-[2-[2-[2-[2-[2-[2-(2-hydroxyethoxy)ethoxy]ethoxy]ethoxy]ethoxy]ethoxy]ethoxy]ethoxy]ethoxy]-56-[(1R)-2-[(1S,3R,4R)-4-hydroxy-3-methoxy-cyclohexyl]-1-methyl-ethyl]-58-methoxy-46, 47,48,49,59,60-hexamethyl-78,79-dioxa-68-azatricyclohexatriaconta-21, 23,25(59),26(60)-tetraene-61,62,63,64,65-pentone] | modest concentration dependent inhibition | YES |  | do not inhibit | do not inhibit | 

— patent US11944605B2, “Rapamycin analogs and uses thereof” (Janssen Pharmaceutica NV, priority 2018, dated 2024)
